{"source": "patent US20250201406A1", "about": "“METHOD AND BIOMARKER FOR PREDICTING SEVERITY OF COVID-19 DISEASE AND METHOD FOR THERAPEUTIC INTERVENTION IN COVID-19 DISEASE” (priority 2022, published 2025)", "key": {"[1]": {"tested_on": "CD8^+Tc", "test": "SARS-CoV-2 specific peptide activation of COVID(+) PBMCs in presence or absence of Mdivi-1, flow cytometry of CD8+Tc", "format": "cell-based, human", "details": "20 μM Mdivi-1 vs vehicle, 96 hr, CD8a SARS-CoV-2 megapool peptide, PBMCs from COVID-19(+) patients", "experimental": "(§1) PBMCs (0.5×10^6 cells) were first stained with live/dead in PBS for 15 min, washed with Flow Cytometry Staining Buffer (FACS Buffer), and stained with surface markers in ice-cold FACS buffer at 4° C. for 30 min. PBMCs were then washed twice with FACS buffer and stained with secondary antibodies for 15 minutes. Samples were fixed and permeabilized using Fixation/Permeabilization buffer (20 min) at room temperature and washed with ice-cold FACS buffer. PBMCs were then stained with intracellular antibodies at 37° C. for 45 min in permeabilization buffer. Samples were washed once with permeabilization buffer before being resuspended in FACS buffer for flow cytometric analysis using Cytoflex system. Data was then analyzed by Flowjo™v10.\n(§2) PBMCs (5×10^5) were stimulated with […] of CD8a SARS-CoV-2 megapool peptide^92 in the presence of absence of 20 μM Mdivi-1 at 37° C., 5% C02 for 96 hr.\n(§3) FIGS. 15A-F. Mitophagy inhibition restores CD8^+Tc and SARS-CoV-2 specific CD8^+Tc function. PBMCs from 5 COVID-19(+) patients were activated with SARS-CoV-2 megapool CD8a peptide (see Methods) in the presence or absence of MDIVI-1 (20 μM). One sample was excluded from analysis due to critically low CD8^+Tc count. […] Two-tailed student's T-test was used. *p<0.05, **p<0.01, and ***p<0.001."}, "[2]": {"tested_on": "CD8^+TM", "test": "SARS-CoV-2 specific peptide activation of COVID(+) PBMCs in presence or absence of Mdivi-1, flow cytometry of CD8+TM", "format": "cell-based, human", "details": "20 μM Mdivi-1 vs vehicle, 96 hr, CD8a SARS-CoV-2 megapool peptide, PBMCs from COVID-19(+) patients", "experimental": "as §1, §2, §3"}, "[3]": {"tested_on": "SARS-CoV-2", "details": "virally infected cells; cited from earlier work"}, "[4]": {"tested_on": "COVID-19", "details": "randomized clinical trials; cited from earlier work"}, "[5]": {"tested_on": "COVID-19", "details": "COVID-19 patients, stage-2 clinical trial; cited from earlier work"}, "[6]": {"tested_on": "SARS-CoV-2 specific CD8^+Tc", "details": "through normalizing cellular metabolism; cited from earlier work"}}}
{"compound": "COc1cc(-n2c(=S)[nH]c3ccccc3c2=O)c(Cl)cc1Cl", "note": "[Mdivi-1]", "values": [{"measurement": "generation of SARS-CoV-2-specific CD137^+ cells amongst CD8+Tc", "setting": "[1]; FIG. 15B", "value": "improved"}, {"measurement": "proliferation (Ki-67^+ cells) of CD8+Tc", "setting": "[1]; FIG. 15C", "value": "induced"}, {"measurement": "IFNy-secreting capacity of CD8^+Tc", "setting": "[1]; FIG. 15D", "value": "induced"}, {"measurement": "Glut-1 expression in CD8^+TM", "setting": "[2]", "value": "reduced"}, {"measurement": "CD8^+TM proliferation (Ki-67)", "setting": "[2]; FIG. 15E", "value": "augmented"}, {"measurement": "SARS-CoV-2 replication", "setting": "[3]", "value": "effectively reduce"}]}
{"compound": "CCN(CCO)CCCC(C)Nc1ccnc2cc(Cl)ccc12", "note": "(stereo not drawn) [Hydroxychloroquine]", "values": [{"measurement": "efficacy in COVID-19", "setting": "[4]", "value": "ineffective"}]}
{"compound": "O=CC[C@@H](O)[C@H](O)[C@H](O)CO", "note": "[2-DG, 2-deoxy-glucose]", "values": [{"measurement": "patient outcomes", "setting": "[5]", "value": "successful in improving patient outcomes"}]}
{"compound": "cyclophilin A: found to restore SARS-CoV-2 specific CD8+Tc function through normalizing cellular metabolism", "values": [{"measurement": "SARS-CoV-2 specific CD8^+Tc function", "setting": "[6]", "value": "restore"}]}
